In patent US8343990B2, “Substituted cyclopropyl compounds, compositions containing such compounds and methods of treatment” (Merck Sharp & Dohme Corp., priority 2008, dated 2013):

Target: T1, GPR119 receptor (UniProt Q8TDV5, S309L, species not given)
T1 sequence (Q8TDV5 1-335 S309L): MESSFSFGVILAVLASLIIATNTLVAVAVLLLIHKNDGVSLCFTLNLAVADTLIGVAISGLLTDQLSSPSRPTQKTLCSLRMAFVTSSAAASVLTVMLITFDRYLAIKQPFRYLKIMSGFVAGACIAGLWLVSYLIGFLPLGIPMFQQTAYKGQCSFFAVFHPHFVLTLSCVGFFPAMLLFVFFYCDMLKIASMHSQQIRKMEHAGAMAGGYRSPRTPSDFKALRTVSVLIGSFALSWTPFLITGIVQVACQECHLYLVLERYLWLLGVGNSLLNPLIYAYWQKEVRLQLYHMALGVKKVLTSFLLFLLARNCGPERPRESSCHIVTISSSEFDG
Assay: GPR119 signaling, cyclic AMP (cAMP) homogenous time resolved fluorescence (HTRF) assay
Assay type: cell-based
Settings: CHO cells with Gα15 and murine GPR119, or HEK293 Flp-In cells with human GPR119 S309L; table does not say which; read-out: Activity: inflection points, denoted as EC50 values (agonist activation of GPR119, cAMP)
Text: Measurement of GPR119 Signaling Using a Cyclic AMP (cAMP) Homogenous Time Resolved Fluorescence (HTRF) Assay
Chinese hamster ovary (CHO) cell lines stably transfected with the permissive guanine nucleotide binding protein alpha 15 (Gα15) and […] GPR119 were maintained in DMEM media containing FBS, penicillin-streptomycin, puromycin, and G418 (geneticin). Alternatively, human embryonic kidney (HEK)293 Flp-In cells (Invitrogen, Carlsbad, Calif.) were stably transfected with a human SNP variant (S309L) of GPR119 and maintained in DMEM media containing FBS, penicillin-streptomycin, and hygromycin. Agonist activation of the GPR119 receptor was measured in receptor transfected cells described above, treated with compounds of this invention, using a commercial homogenous time resolved fluorescence (HTRF) kit for measurement of cAMP (CisBio, Bedford, Mass.). The assay was performed in 96-well half-volume plates (murine) or 384-well plates (human) following the manufacturers instructions. Briefly, suspended cells were incubated with a dose titration of test compound at room temperature for 60 min, lysed, and incubated with HTRF reagents for an additional 60 min. The plate was read using an Envision multilabel reader (Perkin Elmer) adjusted to read time resolved fluorescence and the cAMP concentrations were extrapolated from a cAMP calibration curve. […] The concentration of test compound required to stimulate a half-maximal response (EC50), and efficacy as compared to an internal agonist control, was determined from a sigmoidal 4-parameter curve fit of the resulting plot of normalized activity versus compound concentration.

| EC50 [nM] | SMILES |
| --- | --- |
| 10 to 50 | Cc1cc(OCC[C@@H]2C[C@H]2C2CCN(c3ncc(Cl)cn3)CC2)nc(C#N)n1 (racemic) [Ex 99, rac-trans-4-{2-{2-[1-(5-chloropyrimidin-2-yl)piperidin-4-yl]cyclopropyl}ethoxy)-6-methylpyrimidine-2-carbonitrile] |
| 50 to 200 | N#Cc1ccc(OC[C@@H]2C[C@H]2CC2CCN(c3ncc(Cl)cn3)CC2)cc1F (racemic) [Ex 104, Rac-trans-4-[(2-{[1-(5-chloropyrimidin-2-yl)piperidin-4-yl]methyl}cyclopropyl)methoxy]-2-fluorobenzonitrile] |
| < 10 | Cc1nnc(-c2ccc(OCCC3CC3C3CCN(c4ncc(Cl)cn4)CC3)cc2)o1 (racemic) [Ex 16, rac cis-5-chloro-2-[4-(2-{2-[4-(5-methyl-1,3.4-oxadiazol-2-yl)phenoxy]ethyl}cyclopropyl)piperidin-1-yl]pyrimidine] |
| 10 to 50 | Clc1cnc(N2CCC(C3CC3CCOc3ccc(-c4cocn4)cc3)CC2)nc1 (racemic) [Ex 19, rac cis-5-chloro-2-[4-(2-{2-[4-(1,3-oxazol-4-yl)phenoxy]ethyl}cyclopropyl)piperidin-1-yl]pyrimidine] |
| < 10 | Cc1nc(C#N)cc(OCC[C@@H]2C[C@@H]2C2CCN(c3ncc(Cl)cn3)CC2)n1 (racemic) [Ex 51, Rac-cis-6-(2-{2-[1-(5-chloropyrimidin-2-yl)piperidin-4-yl]cyclopropyl}ethoxy)-2-methylpyrimidine-4-carbonitrile] |
| 10 to 50 | Fc1cc(OCCC2CC2C2CCN(c3ncc(Cl)cn3)CC2)ccc1-n1cnnn1 (single isomer, unassigned) [Ex 83dF, cis-5-chloro-2-[4-(2-{2-[3-fluoro-4-(1H-tetrazol-1-yl)phenoxy]ethyl}cyclopropyl)piperidin-1-yl]pyrimidine] |
| < 10 | Clc1cnc(N2CCC(C3CC3CCOc3ccc(-n4cnnn4)cc3)CC2)nc1 (single isomer, unassigned) [Ex 83cS, cis-5-chloro-2-[4-(2-{2-[4-(1H-tetrazol-1-yl)phenoxy]ethyl}cyclopropyl)piperidin-1-yl]pyrimidine] |
| 50 to 200 | Fc1cnc(N2CCC(C3CC3CCOc3ccc(-n4ccnn4)cc3)CC2)nc1 (single isomer, unassigned) [Ex 83bF, cis-5-fluoro-2-[4-(2-{2-[4-(1H-1,2,3-triazol-1-yl)phenoxy]ethyl}cyclopropyl)piperidin-1-yl]pyrimidine] |
| < 10 | CS(=O)(=O)c1ccc(OCC[C@H]2C[C@H]2C2CCN(c3ncc(Cl)cn3)CC2)nc1 (racemic) [Ex 6a, rac-cis 5-chloro-2-{-4-[2-(2-{[5-(methylsulfonyl)pyridin-2-yl]oxy}ethyl)cyclopropyl]piperidin-1-yl}pyrimidine] |
| > 200 | CS(=O)(=O)c1ccc(OC[C@H]2C[C@H]2CC2CCN(c3ncc(Cl)cn3)CC2)cc1 (racemic) [Ex 116, rac-cis-5-chloro-2-{-4-[(2-{[4-(methylsulfonyl)phenoxy]methyl}cyclopropyl)methyl]piperidin-1-yl}pyrimidine] |
| 10 to 50 | N#Cc1ccc(OCCC2CC2C2CCN(c3ncc(Cl)cn3)CC2)cc1F (racemic) [Ex 12, rac cis-4-(2-{2-[1-(5-chloropyrimidin-2-yl)piperidin-4-yl)cyclopropyl}ethoxy)-2-fluorobenzonitrile] |
| 10 to 50 | Fc1cc(OCC[C@H]2C[C@@H]2C2CCN(c3ncc(Cl)cn3)CC2)ccc1-c1nnc(C2CC2)o1 [Ex 97, 5-chloro-2-[4-((1R,2R)-2-{2-[4-(5-cyclopropyl-1,3,4-oxadiazol-2-yl)-3-fluorophenoxy]ethyl}cyclopropyl)piperidin-1-yl]pyrimidine] |
| 50 to 200 | Cc1nnc(-c2ccc(OCCC3CC3C3CCN(c4ncc(F)cn4)CC3)cc2F)o1 (single isomer, unassigned) [Ex 83eF, cis-5-fluoro-2-[4-(2-{2-[3-fluoro-4-(5-methyl-1,3,4-oxadiazol-2-yl)phenoxy]ethyl}cyclopropyl)piperidin-1-yl]pyrimidine] |
